Test systems include DLD-1; HOP-18; KM-20L2; LXFL 529; M19-MEL; SNB-78; XF498; DMS-114.
What all share (experiment): inhibition of tumour cell growth, NCI panel, 48 h

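Exposure lasted 48 hours, with cells grown in 96-well plates and compounds tested at five concentrations. GI50 is the concentration that inhibits growth by half.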 The source made the active and inactive calls. No stated cut-off is given here; in the data, active = GI50 up to about 1.1 µM and inactive = higher.

Consider `Cc1ccc2nc(NC(=O)C(=O)CC(=O)c3cccc4ccccc34)sc2c1`, for which the GI50 with DLD-1 is 49.7 µM (inactive); in the assay with HOP-18 it was 24.7 µM (inactive); in the assay with KM-20L2 it was 46.3 µM (inactive); in the assay with LXFL 529, 45.6 µM (inactive); in the assay with M19-MEL, 35.5 µM (inactive); in the assay on SNB-78, 32.9 µM (inactive). Besides, the GI50 in the assay on XF498 is 45.9 µM (inactive).
With `CCC1NCC(=O)c2c1[nH]c1ccccc21` (stereo not drawn), the GI50 in the assay on DLD-1, in the assay with DMS-114, in the assay with HOP-18, in the assay on KM-20L2, in the assay on LXFL 529 and with M19-MEL was > 100 µM (inactive) in each case. Also, the GI50 in the assay on SNB-78 is > 100 µM (inactive).
As to `CC1CN1P1(N2CC2C)=NP(N2CC2C)(N2CC2C)=NP(N2CC2C)(N2CC2C)=N1` (stereo not drawn), the GI50 with DLD-1, with HOP-18, in the assay with KM-20L2, with LXFL 529, in the assay with M19-MEL and in the assay with XF498 was > 50 µM (inactive) throughout.
As for `COc1ccc(OC)c(NC(=O)C2=C(C)NC(C)=C(C(=O)Nc3cc(OC)ccc3OC)C2c2ccco2)c1`, the GI50 with DLD-1, in the assay with DMS-114, in the assay on KM-20L2, in the assay on LXFL 529, in the assay on M19-MEL and in the assay with SNB-78 was > 100 µM (inactive) in each case. Besides, in the assay on XF498, the GI50 is > 100 µM (inactive).
For the molecule `CC12OC(=O)C(C#N)C1(C)C1C(=O)CCCC12` (stereo not drawn), the GI50 in the assay with DLD-1, in the assay on DMS-114, in the assay with HOP-18, with KM-20L2, with LXFL 529 and in the assay with M19-MEL was > 100 µM (inactive) in each case. The GI50 in the assay on XF498 was > 100 µM (inactive).
With `COC(=O)C(=O)C(C#N)c1cccc(Cl)c1` (stereo not drawn), the GI50 with DLD-1, in the assay with HOP-18, with KM-20L2, in the assay with LXFL 529, in the assay with M19-MEL and in the assay with SNB-78 was > 100 µM (inactive) throughout. The GI50 with XF498 was > 100 µM (inactive).
On to `CCOC(=O)c1c[nH]c2c(ccc3ncccc32)c1=O`, for which the GI50 with DLD-1, with DMS-114, with HOP-18, in the assay on KM-20L2, with LXFL 529 and in the assay on M19-MEL was > 100 µM (inactive) in each case. Moreover, the GI50 with SNB-78 is > 100 µM (inactive).
As to `CCCCN(CCCC)CC(C(=O)Nc1ccc([N+](=O)[O-])cc1[N+](=O)[O-])/C(C)=N\NC(=S)NN` (stereo not drawn), the GI50 with DLD-1, in the assay with DMS-114, in the assay on KM-20L2, in the assay on LXFL 529, with M19-MEL and in the assay with XF498 was > 100 µM (inactive) throughout.
With `CN(C)c1nc(N(C)C)nc(N(C)CN(C)c2nc(N(C)C)nc(N(C)C)n2)n1`, the GI50 is > 100 µM (inactive) in the assay on DLD-1; > 100 µM (inactive) in the assay with DMS-114; > 100 µM (inactive) with HOP-18; > 100 µM (inactive) in the assay with KM-20L2; 77.6 µM (inactive) in the assay on LXFL 529; > 100 µM (inactive) in the assay on M19-MEL. Further, the GI50 in the assay on SNB-78 was > 100 µM (inactive).
`Cc1ccc(O)c(/N=N/c2ccc(S(=O)(=O)O)cc2)n1`: the GI50 with DLD-1, in the assay on DMS-114, with HOP-18, in the assay with KM-20L2, in the assay on LXFL 529 and in the assay on M19-MEL was > 100 µM (inactive) throughout.
As to `COc1cc(C2c3cc4c(cc3[C@@H](NCCN3CCCCC3)C3COC(=O)[C@H]23)OCO4)cc(OC)c1O` (stereo partly drawn), the GI50 with DLD-1 was 1.58 µM (inactive); with HOP-18, 0.303 µM (active); in the assay with KM-20L2 it was 1.17 µM (inactive); with LXFL 529, 1.8 µM (inactive); in the assay with M19-MEL it was 0.805 µM (active); with SNB-78 it was 2.57 µM (inactive).

The record behind these values is ChEMBL document CHEMBL1201862, “PubChem BioAssay data set” (2004).
